Numbers after ± are expanded uncertainties. Values belong to the compound of their own block, whether it stands above or below them.
What was measured:
[1] = refractive index (Na D-line) (dimensionless); wn = mass fraction of the nth substance listed; details: 298.15 K, 100 kPa, Liquid, Standard Abbe refractometry
[2] = wn = mass fraction of the nth substance listed; details: 298.15 K, 100 kPa, Liquid, Pycnometric method

refractive index ([1]; w1 = 0.6463): 1.4095 ± 0.002 | mass density ([2]; w1 = 0.6463): 2009.2 ± 24 kg/m3
Compound: O=S(=O)([O-])[O-].[Cs+].[Cs+] [cesium sulfate] + O

refractive index ([1]; w1 = 0.3365): 1.3649 ± 0.002 | mass density ([2]; w1 = 0.3365): 1363.1 ± 24 kg/m3
Compound: O=S(=O)([O-])[O-].[Rb+].[Rb+] [rubidium sulfate] + O

refractive index ([1]; w1 = 0.218): 1.3628 ± 0.002 | mass density ([2]; w1 = 0.218): 1183 ± 24 kg/m3
Compound: O=S(=O)([O-])[O-].[Na+].[Na+] [sodium sulfate] + O

Source: the NIST ThermoML archive (doi:10.1021/acs.jced.8b00693)
